Experimental data from ChEMBL document CHEMBL1147106, “Antistaphylococcal activity of DX-619 alone and in combination with vancomycin, teicoplanin, and linezolid assessed by time-kill synergy testing” (2007).
Converted amounts (≈) assume the structure as drawn.

Legend:
Type in all cases: functional
[1] = test system: Staphylococcus aureus; assay: Antistaphylococcal activity against quinolone-resistant Staphylococcus aureus 242
[2] = test system: Staphylococcus aureus; assay: Antistaphylococcal activity against quinolone-resistant Staphylococcus aureus 261
[3] = test system: Staphylococcus aureus; assay: Antistaphylococcal activity against quinolone-resistant Staphylococcus aureus 508
[4] = test system: Staphylococcus aureus; assay: Antistaphylococcal activity against quinolone-susceptible methicillin-resistant Staphylococcus aureus
[5] = test system: Staphylococcus aureus; assay: Antistaphylococcal activity against quinolone and methicillin-resistant Staphylococcus aureus
[6] = test system: Staphylococcus aureus; assay: Antistaphylococcal activity against vancomycin-intermediate Staphylococcus aureus 504
[7] = test system: Staphylococcus aureus; assay: Antistaphylococcal activity against vancomycin-intermediate Staphylococcus aureus 506
[8] = test system: Staphylococcus aureus; assay: Antistaphylococcal activity against vancomycin-intermediate Staphylococcus aureus 507
[9] = test system: Staphylococcus aureus; assay: Antistaphylococcal activity against vancomycin-intermediate Staphylococcus aureus 555
[10] = test system: Staphylococcus aureus; assay: Antistaphylococcal activity against vancomycin-resistant Staphylococcus aureus 509
[11] = test system: Staphylococcus aureus; assay: Antistaphylococcal activity against vancomycin-resistant Staphylococcus aureus 510
[12] = test system: Staphylococcus aureus; assay: Antistaphylococcal activity against vancomycin-resistant Staphylococcus aureus 512
[13] = test system: Staphylococcus aureus; assay: Antistaphylococcal activity against vancomycin-intermediate Staphylococcus aureus
[14] = test system: Staphylococcus aureus; assay: Antistaphylococcal activity against vancomycin-resistant Staphylococcus aureus
[15] = test system: Staphylococcus aureus; assay: Antistaphylococcal activity against vancomycin-intermediate Staphylococcus aureus 505
[16] = test system: Staphylococcus aureus; assay: Antistaphylococcal activity against methicillin-sensitive Staphylococcus aureus
[17] = test system: Staphylococcus aureus; assay: Antistaphylococcal activity against vancomycin-intermediate Staphylococcus aureus 508
[18] = test system: Staphylococcus aureus; assay: Antistaphylococcal activity against quinolone-resistant Staphylococcus aureus 241

Which results are given for `COc1c(N2CC[C@@H](C3(N)CC3)C2)ccc2c(=O)c(C(=O)O)cn([C@@H]3C[C@@H]3F)c12`?
MIC [1]: 0.004 µg/mL (≈ 0.00996 µM); MIC [2]: 0.004 µg/mL (≈ 0.00996 µM); MIC [3]: 0.004 µg/mL (≈ 0.00996 µM); MIC [4]: 0.008 µg/mL (≈ 0.0199 µM); MIC [5]: 0.06 µg/mL (≈ 0.149 µM); MIC [6]: 0.06 µg/mL (≈ 0.149 µM); MIC [7]: 0.06 µg/mL (≈ 0.149 µM); MIC [8]: 0.06 µg/mL (≈ 0.149 µM); MIC [9]: 0.06 µg/mL (≈ 0.149 µM); MIC [10]: 0.06 µg/mL (≈ 0.149 µM); MIC [11]: 0.06 µg/mL (≈ 0.149 µM); MIC [12]: 0.06 µg/mL (≈ 0.149 µM); MIC [13]: 0.016 µg/mL (≈ 0.0399 µM); MIC [14]: 0.125 µg/mL (≈ 0.311 µM); MIC [15]: 0.004 µg/mL (≈ 0.00996 µM); MIC [16]: 0.004 µg/mL (≈ 0.00996 µM); MIC [17]: 0.004 µg/mL (≈ 0.00996 µM); MIC [18]: 0.004 µg/mL (≈ 0.00996 µM)

How did the MIC [11] turn out when `CN[C@H](CC(C)C)C(=O)N[C@H]1C(=O)N[C@@H](CC(N)=O)C(=O)N[C@H]2C(=O)N[C@H]3C(=O)N[C@H](C(=O)N[C@H](C(=O)O)c4cc(O)cc(O)c4-c4cc3ccc4O)[C@H](O)c3ccc(c(Cl)c3)Oc3cc2cc(c3O[C@@H]2O[C@H](CO)[C@@H](O)[C@H](O)[C@H]2O[C@H]2C[C@](C)(N)[C@H](O)[C@H](C)O2)Oc2ccc(cc2Cl)[C@H]1O` [VANCOMYCIN] was run?
The MIC was 0.05 µg/mL (≈ 0.0345 µM).

And the MIC [14]?
Its MIC is 32 µg/mL (≈ 22.1 µM).

For `C[C@H]1COc2c(N3CCN(C)CC3)c(F)cc3c(=O)c(C(=O)O)cn1c23.C[C@H]1COc2c(N3CCN(C)CC3)c(F)cc3c(=O)c(C(=O)O)cn1c23.O` [LEVOFLOXACIN], which MIC [5] is on record?
The MIC was ≥ 4 µg/mL.
